Literature values as cited in US20160213008A1, “ULTRASONIC MICRO-DROPLET RELEASE OF MATRIX BOUND FOOD DERIVED ANTIMICROBIALS” (priority 2015, published 2016).

Conditions: Cavallito and colleagues 1944

Structure (SMILES)	antibacterial and antifungal / antimicrobial activity
C=CCSSC=CC[S+]([O-])CC=C (mixture of isomers) [Ajoene]	shows antimicrobial properties
C=CCS[S+]([O-])CC=C (centres unmarked) [allicin]	attributable
